# Experimental data published in ChEMBL document CHEMBL1201862, “PubChem BioAssay data set” (2004).
# Calls of active or inactive are those of the source.
# Tests used:
# [1] = bead-based luminescence quenchers, dual-tagged ARNT – biochemical, AlphaScreen, cherry-pick, artefact control for ARNT-TACC3 interaction inhibitor project, dose response (AID 651705); format: functional;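 also: AlphaScreen bead proximity signal that flags compounds interfering with the detection technology; potency reflects signal decrease which marks the compound as an assay artifact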
# Interleukin-8 [2] = biological target: T1, Interleukin-8 (Homo sapiens, UniProt P10145); assay: Dose Response confirmation of uHTS small molecule hits for cystic fibrosis induced NFkb Inhibitors in a PAF-induced IL8 counterscreen.; format: functional; details: read-out: IC50_Mean
# Interleukin-8 [3] = biological target: T1, Interleukin-8; assay: Dose Response confirmation of uHTS small molecule hits for cystic fibrosis induced NFkb Inhibitors in a TNFa-induced IL8 counterscreen.; format: functional; details: read-out: IC50_Mean
# [4] = biological target: T2, Ubiquitin-conjugating enzyme E2 N (Homo sapiens, UniProt P61088); format: functional;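 also: Dose-response confirmation in a TR-FRET assay detecting UBC13-driven polyubiquitin chain formation, inhibition measured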
# T2 sequence (P61088 whole entry): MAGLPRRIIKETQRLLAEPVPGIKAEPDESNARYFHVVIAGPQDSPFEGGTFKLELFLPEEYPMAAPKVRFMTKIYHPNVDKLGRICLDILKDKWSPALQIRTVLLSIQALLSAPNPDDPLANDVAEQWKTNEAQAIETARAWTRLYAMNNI
# INS1 = assay: INS-1E survival protection against cytokine death – cell-based, luminescence, retest, dose response (AID 449756); format: functional; details: Rattus norvegicus;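 also: cell death triggered by IL-1 beta plus TNF-alpha plus IFN-gamma mixture; protective hits raise ATP signal compared with cytokine alone wells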
# [5] = biological target: T3, Multidrug resistance protein CDR2 (Candida albicans (strain SC5314 / ATCC MYA-2876) (Yeast), UniProt P78595); assay: blockers of Nile Red efflux by Candida CDR2 – S. cerevisiae AD1-8u, singleplex, Cherry Pick2 set, dose response (AID 623994); format: functional; details: read-out: EC50_MICROM
# T3 sequence (P78595 whole entry): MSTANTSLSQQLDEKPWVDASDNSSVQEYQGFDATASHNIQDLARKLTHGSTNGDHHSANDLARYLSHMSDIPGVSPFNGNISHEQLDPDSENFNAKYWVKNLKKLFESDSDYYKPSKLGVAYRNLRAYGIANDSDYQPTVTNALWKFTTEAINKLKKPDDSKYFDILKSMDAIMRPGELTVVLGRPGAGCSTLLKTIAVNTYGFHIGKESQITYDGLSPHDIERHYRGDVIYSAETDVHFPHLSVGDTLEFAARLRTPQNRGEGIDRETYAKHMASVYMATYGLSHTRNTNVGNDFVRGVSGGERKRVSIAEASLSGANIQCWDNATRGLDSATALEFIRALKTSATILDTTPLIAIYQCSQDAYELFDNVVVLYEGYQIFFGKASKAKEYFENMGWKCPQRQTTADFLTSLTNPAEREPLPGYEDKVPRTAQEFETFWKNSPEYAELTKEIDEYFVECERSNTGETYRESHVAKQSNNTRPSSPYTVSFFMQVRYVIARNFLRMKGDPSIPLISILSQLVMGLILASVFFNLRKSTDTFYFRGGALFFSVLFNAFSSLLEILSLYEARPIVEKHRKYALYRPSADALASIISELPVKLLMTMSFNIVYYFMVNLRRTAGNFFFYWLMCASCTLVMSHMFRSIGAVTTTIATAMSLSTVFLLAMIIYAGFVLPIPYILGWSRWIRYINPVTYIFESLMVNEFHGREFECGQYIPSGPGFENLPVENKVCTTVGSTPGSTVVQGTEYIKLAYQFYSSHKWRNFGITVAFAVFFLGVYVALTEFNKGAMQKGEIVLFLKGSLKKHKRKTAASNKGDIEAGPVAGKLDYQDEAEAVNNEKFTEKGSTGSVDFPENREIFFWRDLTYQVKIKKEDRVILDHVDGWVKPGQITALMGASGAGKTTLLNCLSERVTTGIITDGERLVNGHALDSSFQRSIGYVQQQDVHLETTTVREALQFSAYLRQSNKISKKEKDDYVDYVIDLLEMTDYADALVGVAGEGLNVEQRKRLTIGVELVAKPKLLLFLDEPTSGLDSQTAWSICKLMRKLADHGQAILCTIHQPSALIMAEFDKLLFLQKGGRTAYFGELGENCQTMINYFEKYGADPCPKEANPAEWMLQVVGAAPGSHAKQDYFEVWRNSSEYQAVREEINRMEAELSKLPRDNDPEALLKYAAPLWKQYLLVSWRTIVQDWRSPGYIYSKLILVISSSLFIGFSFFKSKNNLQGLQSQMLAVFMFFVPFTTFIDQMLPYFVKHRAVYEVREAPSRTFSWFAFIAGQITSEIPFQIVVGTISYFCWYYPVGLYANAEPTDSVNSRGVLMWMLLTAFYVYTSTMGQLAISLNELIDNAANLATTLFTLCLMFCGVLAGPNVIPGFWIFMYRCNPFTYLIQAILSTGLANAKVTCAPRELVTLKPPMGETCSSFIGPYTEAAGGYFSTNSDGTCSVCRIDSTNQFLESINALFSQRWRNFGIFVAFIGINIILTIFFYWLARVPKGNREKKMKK
# cells = format: functional
# [6] = THP-1 cell cytotoxicity, dose response, cytotoxicity control for non-replicating M. tuberculosis project (AID 489025); format: functional
# [7] = fluconazole-exposed Candida albicans growth modulators – fluorescence, retest, confirmation (AID 2467); format: functional, cell-based
# [8] = NIH-3T3 fibroblast cytotoxicity, dose response, cytotoxicity control, cell-based, fluorescence, Alamar Blue, secondary assay (AID 2327); format: functional;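 also: NIH-3T3 mouse fibroblasts cultured with fluconazole at 8 µg/mL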
# [9] = biological target: Adenosylmethionine-8-amino-7-oxononanoate aminotransferase (Mycobacterium tuberculosis, UniProt P9WQ81); assay: Mycobacterium tuberculosis BioA enzyme inhibitor Measured in Biochemical System Using Plate Reader - 2163-02_Inhibitor_Dose_CherryPick_Activity.; format: functional, Mycobacterium tuberculosis UT205
# [10] = biological target: Nucleotide-binding oligomerization domain-containing protein 2 (Homo sapiens, UniProt Q9HC29); assay: inhibition of NOD2-driven NF-kB reporter – cell-based, luminescence, uHTS, HEK293 (AID 1566); format: functional
# HEK293 [11] = assay: inhibition of NOD1-driven NF-kB reporter – cell-based, luminescence, uHTS, primary screen (AID 1578); format: functional; details: Homo sapiens
# HEK293 [12] = assay: cells; format: functional, cell-based; details: Homo sapiens
# [13] = biological target: Mitochondrial peptide methionine sulfoxide reductase (Bos taurus, UniProt P54149); assay: Absorbance-based biochemical high throughput dose response assay for activators of Methionine sulfoxide reductase A (MsrA).; format: functional
# HEK293 [14] = assay: cells; format: functional, cell-based; details: Homo sapiens; remark: listed apart in the source
# HEK293 [15] = assay: NOD2 signaling inhibitors in MDP-stimulated cells, cell-based, uHTS, luminescence (AID 2001); format: functional; details: Homo sapiens
# HEK293 [16] = assay: cells; format: functional, cell-based; details: Homo sapiens; remark: listed apart in the source
# [17] = biological target: T4, Sentrin-specific protease 1 (Homo sapiens, UniProt Q9P0U3); assay: Dose response confirmation of small molecule inhibitors of the catalytic domain of the SUMO protease, SENP1 in a FRET assay.; format: functional; details: read-out: IC50_Mean
# [18] = biological target: T4, Sentrin-specific protease 1; assay: SENP1 catalytic domain blockers, concentration series – biochemical, kinetic FRET, dose response (AID 651697); format: functional; details: read-out: IC50_Mean
# Protein Wnt-3a = Protein Wnt-3a (Mus musculus, UniProt P27467); assay: antagonism of Wnt3a pathway luciferase reporter – Wnt-LIGHT cells, luminescence, selectivity assay for Gli-SUFU antagonist project, dose response (AID 651570); format: functional; details: read-out: IC50_Mean;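 also: Wnt-LIGHT reporter cells stimulated with conditioned medium from Wnt3a-producing cells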
# [19] = biological target: Opioid receptors; mu & delta (Homo sapiens, UniProt P41143+P35372); assay: OPRM1-OPRD1 heterodimer agonist potency – cell-based, luminescence, counter-screen for MC4R biased agonist project, dose response (AID 602264); format: functional
# Melanocortin receptor 4 = Melanocortin receptor 4 (Homo sapiens, UniProt P32245); format: functional, cell-based;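 also: Cell-based assay with luminescence read-out, confirmatory dose-response testing for agonist activity of biased ligands at MC4R; human U2OS cells with tagged receptor and beta-arrestin; potency of agonists that increase receptor coupling to beta-arrestin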
# [20] = biological target: T5, ATP-dependent translocase ABCB1 (Homo sapiens, UniProt P08183); assay: inhibition of BCRP-mediated JC-1 efflux – Ig-MXP3 cells, flow cytometry, set 2, dose response (AID 504566); format: functional; details: read-out: EC50_MICROM_;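 also: flow cytometry median green fluorescence of retained JC-1 dye; potency of efflux pump inhibition measured as rising substrate retention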
# [21] = biological target: T5, ATP-dependent translocase ABCB1; assay: P-gp JC-1 efflux blockade concentration-response – Jurkat-DNR cells, flow cytometry, set 2, dose response (AID 504569); format: functional; details: read-out: EC50_MICROM_;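 also: potency of pump inhibitors that raise cellular JC-1 green fluorescence up to the nicardipine level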
# [22] = biological target: Photoreceptor-specific nuclear receptor (Homo sapiens, UniProt Q9Y5X4); format: functional, cell-based;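 also: CHO-S cells with Gal4-NCOR and VP16-NR2E3 two-hybrid luciferase reporter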
# [23] = Fluorescence-based cell-based high throughput dose response assay for inhibitors of the interaction of nucleotide-binding oligomerization domain containing 2 (NOD2) and the receptor-interacting serine-threonine kinase 2 (RIPK2).; format: functional; details: Homo sapiens
# Fatty acid synthase [24] = biological target: T6, Fatty acid synthase (Homo sapiens, UniProt P49327); assay: inhibition of human FAS-TE enzyme activity – biochemical, kinetic fluorescence intensity, dose response (AID 624326); format: functional;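 also: rate of fluorescence rise from hydrolysis of a fluorogenic O-methyl fluorescein ester substrate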
# Beta Lactamase = Beta Lactamase (Pseudomonas aeruginosa, UniProt Q932Y6); assay: BLA reporter interference, concentration series – BLA reporter cells, FRET fluorescence, artefact control for NOD2-RIPK2 interaction inhibitor project, dose response (AID 651552); format: functional, cell-based
# Fatty acid synthase [25] = biological target: T6, Fatty acid synthase; assay: inhibition of human FAS-TE enzyme activity – biochemical, endpoint fluorescence intensity, uHTS hits, dose response (AID 624327); format: functional;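 also: fluorescence from hydrolysis of an O-methyl fluorescein acyl ester substrate by the enzyme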
# Large T antigen = Large T antigen (Simian virus 40, UniProt P03070); format: functional, Betapolyomavirus macacae;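 also: Confirmatory-stage PubChem screen for compounds that inhibit SV40 T antigen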
# [26] = biological target: Bifunctional protein GlmU (Mycobacterium tuberculosis, UniProt P9WMN3); assay: Inhibitors of Mycobacterial Glucosamine-1-phosphate acetyl transferase (GlmU). Secondary screen.; parameters: species or system Mycobacterium tuberculosis H37Rv
# [27] = biological target: T7, Tyrosine-protein phosphatase non-receptor type 22 (Homo sapiens, UniProt Q9Y2R2); assay: lymphoid phosphatase LYP inhibitors – biochemical, selectivity assay for STEP inhibitor project, dose response (AID 624241); format: functional
# T7 sequence (Q9Y2R2 whole entry): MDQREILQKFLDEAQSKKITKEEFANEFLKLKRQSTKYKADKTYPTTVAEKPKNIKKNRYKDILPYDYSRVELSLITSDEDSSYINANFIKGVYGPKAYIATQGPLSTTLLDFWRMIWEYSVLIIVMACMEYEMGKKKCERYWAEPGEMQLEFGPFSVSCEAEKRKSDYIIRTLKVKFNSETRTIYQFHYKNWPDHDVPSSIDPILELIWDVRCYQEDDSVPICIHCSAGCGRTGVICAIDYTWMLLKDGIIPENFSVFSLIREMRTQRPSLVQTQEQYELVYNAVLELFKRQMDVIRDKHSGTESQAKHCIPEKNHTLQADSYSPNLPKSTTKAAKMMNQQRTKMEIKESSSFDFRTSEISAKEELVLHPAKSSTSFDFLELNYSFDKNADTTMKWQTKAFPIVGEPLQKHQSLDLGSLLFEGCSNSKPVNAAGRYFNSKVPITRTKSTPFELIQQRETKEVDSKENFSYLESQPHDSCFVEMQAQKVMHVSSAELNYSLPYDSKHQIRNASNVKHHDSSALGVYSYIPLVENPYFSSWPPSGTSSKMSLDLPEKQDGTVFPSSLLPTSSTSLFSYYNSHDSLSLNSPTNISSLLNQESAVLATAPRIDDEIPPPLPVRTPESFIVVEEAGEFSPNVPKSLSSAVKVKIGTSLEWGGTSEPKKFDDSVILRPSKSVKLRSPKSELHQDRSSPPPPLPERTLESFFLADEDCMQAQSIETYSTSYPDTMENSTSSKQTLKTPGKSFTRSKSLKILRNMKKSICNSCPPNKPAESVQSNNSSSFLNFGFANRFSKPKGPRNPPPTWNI
# [28] = biological target: Dual specificity protein phosphatase 3 (Homo sapiens, UniProt P51452); assay: VHR phosphatase inhibition, dose response, selectivity assay for STEP inhibitor project, biochemical (AID 602374); format: functional; details: read-out: IC50_Mean
# [29] = biological target: Tyrosine-protein phosphatase non-receptor type 11 (Homo sapiens, UniProt Q06124); assay: PTPN11 enzyme inhibitors – biochemical, selectivity assay for STEP inhibitor project, dose response (AID 602367); format: functional; details: read-out: IC50_Mean
# T4 sequence (Q9P0U3 whole entry, the tested form may be a part): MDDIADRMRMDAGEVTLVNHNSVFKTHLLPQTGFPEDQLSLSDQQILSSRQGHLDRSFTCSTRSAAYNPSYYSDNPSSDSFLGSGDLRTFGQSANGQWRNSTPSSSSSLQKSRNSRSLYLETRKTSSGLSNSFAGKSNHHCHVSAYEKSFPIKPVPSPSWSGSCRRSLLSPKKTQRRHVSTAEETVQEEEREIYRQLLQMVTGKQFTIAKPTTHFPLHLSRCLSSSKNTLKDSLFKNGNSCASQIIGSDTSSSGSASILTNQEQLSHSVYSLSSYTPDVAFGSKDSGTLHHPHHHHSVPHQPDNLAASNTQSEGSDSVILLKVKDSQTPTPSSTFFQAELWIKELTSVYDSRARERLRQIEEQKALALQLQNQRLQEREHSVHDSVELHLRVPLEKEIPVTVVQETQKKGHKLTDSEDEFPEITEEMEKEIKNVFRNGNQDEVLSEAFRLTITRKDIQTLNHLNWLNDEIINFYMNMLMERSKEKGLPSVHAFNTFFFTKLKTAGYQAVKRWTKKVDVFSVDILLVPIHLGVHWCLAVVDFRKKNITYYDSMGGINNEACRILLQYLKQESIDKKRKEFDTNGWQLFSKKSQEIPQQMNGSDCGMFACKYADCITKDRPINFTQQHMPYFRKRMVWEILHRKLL
# T6 sequence (P49327 whole entry): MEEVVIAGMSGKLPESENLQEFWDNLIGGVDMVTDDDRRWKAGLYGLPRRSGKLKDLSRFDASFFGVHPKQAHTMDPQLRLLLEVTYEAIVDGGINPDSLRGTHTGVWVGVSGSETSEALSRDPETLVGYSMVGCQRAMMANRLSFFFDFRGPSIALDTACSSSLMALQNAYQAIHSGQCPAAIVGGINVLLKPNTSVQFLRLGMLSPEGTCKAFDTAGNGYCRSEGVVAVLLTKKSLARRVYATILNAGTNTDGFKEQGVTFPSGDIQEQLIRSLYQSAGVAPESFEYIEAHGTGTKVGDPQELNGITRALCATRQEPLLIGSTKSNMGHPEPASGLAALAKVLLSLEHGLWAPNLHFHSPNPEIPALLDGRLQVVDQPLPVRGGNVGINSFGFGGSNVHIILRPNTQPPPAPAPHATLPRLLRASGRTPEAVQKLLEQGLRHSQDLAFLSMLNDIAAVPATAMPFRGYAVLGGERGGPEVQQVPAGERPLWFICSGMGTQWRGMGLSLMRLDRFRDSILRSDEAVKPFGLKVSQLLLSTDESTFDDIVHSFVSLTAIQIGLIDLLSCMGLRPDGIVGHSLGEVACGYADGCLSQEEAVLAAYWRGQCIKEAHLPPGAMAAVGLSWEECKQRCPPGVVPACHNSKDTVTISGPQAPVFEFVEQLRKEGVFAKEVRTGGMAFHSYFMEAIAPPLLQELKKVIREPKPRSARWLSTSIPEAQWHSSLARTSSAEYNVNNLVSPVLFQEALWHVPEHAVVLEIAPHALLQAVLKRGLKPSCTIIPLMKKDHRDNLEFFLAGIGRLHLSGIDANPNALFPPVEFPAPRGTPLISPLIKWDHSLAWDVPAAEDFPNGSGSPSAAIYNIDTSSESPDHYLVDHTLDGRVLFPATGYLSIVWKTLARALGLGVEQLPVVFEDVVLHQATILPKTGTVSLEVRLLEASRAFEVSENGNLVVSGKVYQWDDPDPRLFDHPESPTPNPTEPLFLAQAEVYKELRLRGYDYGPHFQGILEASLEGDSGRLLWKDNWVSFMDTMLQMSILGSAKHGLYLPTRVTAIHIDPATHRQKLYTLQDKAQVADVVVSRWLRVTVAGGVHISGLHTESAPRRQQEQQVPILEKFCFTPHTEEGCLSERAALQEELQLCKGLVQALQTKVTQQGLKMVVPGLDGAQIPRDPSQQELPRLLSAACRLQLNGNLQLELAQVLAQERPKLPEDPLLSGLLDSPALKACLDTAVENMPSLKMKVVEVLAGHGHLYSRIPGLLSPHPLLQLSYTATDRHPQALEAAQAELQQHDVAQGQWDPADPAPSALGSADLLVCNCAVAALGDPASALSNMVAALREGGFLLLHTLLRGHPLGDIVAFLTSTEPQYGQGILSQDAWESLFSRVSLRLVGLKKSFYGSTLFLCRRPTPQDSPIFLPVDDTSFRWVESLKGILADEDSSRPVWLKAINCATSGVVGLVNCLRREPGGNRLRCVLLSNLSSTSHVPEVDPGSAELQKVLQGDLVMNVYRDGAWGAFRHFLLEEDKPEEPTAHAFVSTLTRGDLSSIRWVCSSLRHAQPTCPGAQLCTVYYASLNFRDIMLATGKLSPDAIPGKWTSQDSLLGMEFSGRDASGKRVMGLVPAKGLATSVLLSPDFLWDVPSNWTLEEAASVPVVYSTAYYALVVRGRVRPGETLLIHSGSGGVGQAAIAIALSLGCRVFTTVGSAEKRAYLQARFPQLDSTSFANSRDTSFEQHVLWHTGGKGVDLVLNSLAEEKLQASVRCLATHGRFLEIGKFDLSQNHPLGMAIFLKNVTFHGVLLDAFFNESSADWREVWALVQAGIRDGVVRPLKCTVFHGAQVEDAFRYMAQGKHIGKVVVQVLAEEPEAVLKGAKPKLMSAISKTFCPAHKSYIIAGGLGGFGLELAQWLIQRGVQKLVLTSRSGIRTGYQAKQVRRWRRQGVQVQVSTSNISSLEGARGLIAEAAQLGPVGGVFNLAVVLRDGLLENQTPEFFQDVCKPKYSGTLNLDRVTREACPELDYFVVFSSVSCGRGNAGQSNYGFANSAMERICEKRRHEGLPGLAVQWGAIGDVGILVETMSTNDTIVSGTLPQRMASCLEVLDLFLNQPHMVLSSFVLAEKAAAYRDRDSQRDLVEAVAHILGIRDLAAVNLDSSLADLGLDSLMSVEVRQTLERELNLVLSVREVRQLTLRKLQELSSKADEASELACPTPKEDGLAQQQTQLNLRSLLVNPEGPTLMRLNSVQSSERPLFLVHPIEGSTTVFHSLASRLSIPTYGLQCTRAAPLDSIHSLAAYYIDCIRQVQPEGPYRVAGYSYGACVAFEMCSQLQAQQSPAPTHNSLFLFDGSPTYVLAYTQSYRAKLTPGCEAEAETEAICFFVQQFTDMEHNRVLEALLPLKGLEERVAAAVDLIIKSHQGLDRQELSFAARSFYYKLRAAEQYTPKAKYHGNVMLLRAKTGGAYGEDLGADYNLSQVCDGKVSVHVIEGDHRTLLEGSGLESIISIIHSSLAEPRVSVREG
# T5 sequence (P08183 whole entry): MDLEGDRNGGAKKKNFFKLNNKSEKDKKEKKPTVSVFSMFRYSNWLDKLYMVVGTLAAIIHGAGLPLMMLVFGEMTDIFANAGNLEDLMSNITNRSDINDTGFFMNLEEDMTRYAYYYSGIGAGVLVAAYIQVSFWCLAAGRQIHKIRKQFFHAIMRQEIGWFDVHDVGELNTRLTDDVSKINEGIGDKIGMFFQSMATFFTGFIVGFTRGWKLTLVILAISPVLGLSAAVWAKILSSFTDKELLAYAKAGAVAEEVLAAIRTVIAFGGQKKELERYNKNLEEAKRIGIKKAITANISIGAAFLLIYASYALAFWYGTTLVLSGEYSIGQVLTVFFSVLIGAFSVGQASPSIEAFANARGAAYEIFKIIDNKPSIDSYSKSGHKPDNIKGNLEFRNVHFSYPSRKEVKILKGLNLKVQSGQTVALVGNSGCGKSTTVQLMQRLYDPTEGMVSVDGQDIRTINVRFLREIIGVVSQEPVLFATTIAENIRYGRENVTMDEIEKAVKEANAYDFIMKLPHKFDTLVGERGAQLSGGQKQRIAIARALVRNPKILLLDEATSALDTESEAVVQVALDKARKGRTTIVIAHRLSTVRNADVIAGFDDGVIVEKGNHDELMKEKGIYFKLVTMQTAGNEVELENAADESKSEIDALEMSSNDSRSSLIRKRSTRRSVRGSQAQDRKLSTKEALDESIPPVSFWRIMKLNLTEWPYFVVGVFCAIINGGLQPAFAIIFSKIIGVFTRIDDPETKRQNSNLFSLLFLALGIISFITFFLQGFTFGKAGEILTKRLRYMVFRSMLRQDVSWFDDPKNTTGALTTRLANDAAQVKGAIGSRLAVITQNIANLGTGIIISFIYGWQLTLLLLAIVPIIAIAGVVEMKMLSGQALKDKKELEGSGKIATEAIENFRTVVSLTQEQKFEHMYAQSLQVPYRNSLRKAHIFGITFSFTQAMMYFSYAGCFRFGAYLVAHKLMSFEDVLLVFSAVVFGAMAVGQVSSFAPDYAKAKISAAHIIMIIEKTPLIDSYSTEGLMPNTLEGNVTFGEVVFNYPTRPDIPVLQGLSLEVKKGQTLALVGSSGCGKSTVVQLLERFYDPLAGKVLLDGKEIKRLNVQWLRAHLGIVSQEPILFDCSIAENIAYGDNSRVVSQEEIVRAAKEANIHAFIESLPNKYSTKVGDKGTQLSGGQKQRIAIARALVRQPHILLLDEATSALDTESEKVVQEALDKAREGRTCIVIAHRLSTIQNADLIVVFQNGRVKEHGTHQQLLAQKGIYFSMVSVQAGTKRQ
# T1 sequence (P10145 whole entry): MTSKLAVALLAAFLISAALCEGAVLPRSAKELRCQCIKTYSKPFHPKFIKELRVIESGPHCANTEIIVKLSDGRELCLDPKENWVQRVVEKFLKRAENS
# Protein Wnt-3a, sequence (P27467 whole entry): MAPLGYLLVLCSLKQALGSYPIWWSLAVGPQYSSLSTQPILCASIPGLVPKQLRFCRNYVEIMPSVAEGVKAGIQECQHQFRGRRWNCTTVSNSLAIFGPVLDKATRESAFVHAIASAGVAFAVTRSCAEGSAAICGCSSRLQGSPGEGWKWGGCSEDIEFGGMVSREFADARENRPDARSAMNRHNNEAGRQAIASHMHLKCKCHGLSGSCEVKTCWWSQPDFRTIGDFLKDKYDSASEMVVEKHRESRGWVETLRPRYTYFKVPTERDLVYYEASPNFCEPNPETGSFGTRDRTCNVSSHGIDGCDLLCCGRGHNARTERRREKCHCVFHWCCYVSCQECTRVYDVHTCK
# Dual specificity protein phosphatase 3, sequence (P51452 whole entry): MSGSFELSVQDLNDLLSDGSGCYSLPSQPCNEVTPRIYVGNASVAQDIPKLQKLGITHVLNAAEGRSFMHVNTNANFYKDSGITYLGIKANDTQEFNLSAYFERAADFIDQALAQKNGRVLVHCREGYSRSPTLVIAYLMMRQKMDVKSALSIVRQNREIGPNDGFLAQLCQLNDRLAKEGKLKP
compound,measurement,setting,value
COc1ccccc1-c1nnc(NC(=O)c2cccc(N3C(=O)CCC3=O)c2)o1,AC50,[1],133 µM (active)
COC(=O)N1C(=O)[C@@](c2ccccc2)(C(C)C)N1C(=O)OC,IC50,Interleukin-8 [2],1.82 µM (active)
same,IC50,Interleukin-8 [3],2.15 µM (active)
NC1=NC[C@H](Cc2ccccc2)N1CCCCC1CCCCC1,IC50,[4],> 20 µM (inactive)
same,AC50,INS1,5.54 µM (active)
same,EC50,[5],34.7 µM (active)
same,IC50,cells,23.6 µM (active)
same,CC50,[6],7.59 µM (active)
same,EC50,[7],2.37 µM (active)
same,EC50,[8],> 160 µM (inactive)
CN1CCCC1CCOC(C)(c1ccccc1)c1ccc(Cl)cc1 (stereo not given),AC50,[9],10.6 µM (active)
Cc1ccc(NS(=O)(=O)c2ccc3c(c2)C(=O)c2ccccc2C3=O)c(C)c1,EC50,[10],> 20 µM (inactive)
same,EC50,HEK293 [11],6.34 µM (active)
same,IC50,HEK293 [12],7.68 µM (active)
same,EC50,[13],> 104 µM (inactive)
same,IC50,HEK293 [14],> 20 µM (inactive)
same,IC50,HEK293 [15],6.68 µM (active)
same,IC50,HEK293 [16],> 20 µM (inactive)
COc1ccc2c(c1)c1nc3ccccc3nc1n2Cc1ccc(OC(C)C)c(OC)c1,IC50,[17],34.7 µM (inactive)
same,IC50,[18],24.4 µM (inactive)
CC(C)(C)[C@H]1COC(=O)[C@H](NC(=O)OCC2c3ccccc3-c3ccccc32)C/C=C\C[C@@H](CC(=O)N[C@@H](CO)Cc2ccccc2)C(=O)N1,IC50,Protein Wnt-3a,18.6 µM (active)
NC(Cc1ccc(C(F)(F)F)cc1)c1csc(Nc2ccc(C(=O)NCc3ccco3)cn2)n1 (stereo not given),EC50,[19],> 7.173 µM
same,EC50,Melanocortin receptor 4,> 9.91 µM (active)
CC(=O)N1CCN(c2c(C)c(C)nc3cc(-c4cccc(F)c4)nn23)CC1,EC50,[20],4.22 µM (active)
same,EC50,[21],5.95 µM (inactive)
CCOC(=O)[C@]12Cc3cc(C)ccc3[C@H]1N(C1CCCCC1)C(=O)c1cc(OC)ccc12,IC50,[22],4.3 µM (active)
same,IC50,[23],1.62 µM (active)
same,IC50,Fatty acid synthase [24],6.32 µM (active)
same,IC50,Beta Lactamase,19.3 µM (inactive)
same,IC50,Fatty acid synthase [25],5.45 µM (active)
O=C(O)C(S)C(S)C(=O)O (stereo not given),IC50,Large T antigen,75.9 µM (active)
same,IC50,[26],181 µM (active)
same,IC50,[27],4.48 µM (active)
same,IC50,[28],3.22 µM (active)
same,IC50,[29],0.518 µM (active)
